Laboratory results: patent US5322842A, “Tricyclic benzodiazepine derivates, their preparation, and pharmaceutical compositions containing them” (Fujisawa Pharmaceutical Co., Ltd., priority 1990, dated 1994)

Test system: CCK receptor (rat pancreatic membranes)
Experiment: [125I] CCK-8 binding to rat pancreatic membranes
Settings: test compound 1×10^-8 M, 50 pM 125I-CCK-8, 30 min, 37° C.
Method: [^125 I ] CCK-8 binding to rat pancreatic membranes
Rats were killed by a blow on the head and bled to death. Whole pancreas (about 0.7 g) was removed, minced in a small quantity of 50 mM Tris-HCl buffer (pH 7.4), and homogenized in 30 vol: of the buffer by a polytron homogenizer. The homogenate was centrifuged at 30000×g (16000 rpm) for 10 min. The pellet was then resuspended in the same buffer by a glass-teflon homogenizer and recentrifuged at 30000×g for 10 min. This procedure (washings) was repeated twice more. The final pellet (membrane) was suspended in incubation medium (see below) so as to obtain a final protein concentration of 2 mg/ml. All manipulations were done at 0°-4° C.
(ii) Receptor binding assay
The composition of incubation medium was as follows: 50 mM Tris-HCl (pH 7.4), 5 mM MgCl2, 5 mM dithiothreitol (DTT), 0.14 mg/ml bacitracin, and 0.2% bovine serum albumin (BSA). Freshly prepared membranes (200 μg protein) were incubated for 30 min under shaking at 37° C. in plastic tubes in 500 μl of incubation medium with 50 pM ^125 I-CCK-8 in the presence or absence of test compound (1×10^-8 M). To determine the non-specific binding, CCK-8 at 1 μM was added. […] After washing the filter with 50 mM Tris-HCl (pH 7.4) buffer containing 0.1% BSA, the radioactivity of the filter was counted. […] The effect of test compound was expressed as % inhibition of specific ^125 I-CCK-8 binding.

## CN1CCN2C(=O)C(NC(=O)c3cc4ccccc4[nH]3)N=C(c3ccccc3F)c3cccc1c32 (racemic) [Example 2, (6RS)-1-methyl-5-oxo-6-(2-indolylcarbonylamino)-8-(2-fluorophenyl)-2,3,5,6-tetrahydro-1H-[1,4]diazepino-[1,7,6-de]quinoxaline]
  Inhibition (%) of specific 125I-CCK-8 binding: 95.7%
